Experiments:
[1] = HPLC analysis of phosphorylated AZT metabolites in clones incubated with 3H-AZT; assay type: in vitro ADME
Description: Cell lines were incubated with ^3H-thymidine or ^3H-AZT for 4 hours. Dried methanol extracts of the clones were redissolved in 60 μof distilled water and centrifuged to remove undissolved material. Twenty microliters of the sample was injected and separated on a 10×100 mm Rainin Hydropore anion exchange column. The nucleosides were eluted from the column with a linear gradient of potassium phosphate (5 mM to 1 M, pH4.0) at a flow rate of 1 ml/min. The samples were collected (0.5 ml), mixed with 5 ml Packard scintillation fluid, and quantitated using a liquid scintillation counter. Phosphorylated derivatives of thymidine and AZT were identified with authentic standards.
Pool sizes were determined by incubation of cells with ^3H-AZT for 4 hours followed by cellular extraction and HPLC. The numbers are expressed as pmoles/10^6 cells. The numbers in parentheses represent the percentage of total radioactive species in that pool.

HIV-LacZ = assay type: cell-based; conditions: for cross resistance of cell lines “persistently resistant” to AZT to other nucleoside analogs: d4T at 50 μM
MLV-neo = MLV-neo colony formation in the presence of antiviral agents; assay type: cell-based, Moloney Leukemia virus; conditions: Hela-T4, AZT 10 uM, DDI 50 uM, DDC 10 uM, D4T 50 uM, control 9050
Description: Production of recombinant HIV-gpt has been described elsewhere (26). The amphotropic cell line PA317 was transfected with the recombinant murine retrovirus pLXSN (36) and was used as the source of the recombinant MLV-neo virus. Stock preparations of HIV-1IIIB were harvested from H9 cells by the “shake off method” (13). Stock virus infectivity was determined by end-point dilution in MT-2 cells (32). Virus induced cytopathic effect was scored 7 days post-infection and the TCID50 was calculated with the Reed and Muench equation (33).
To confirm this high rate of infection in the absence of genetic drug resistance, we used several other recombinant viruses and host cells. […] A high rate of infection of Jurkat cells in the presence of d4T has also been seen.
Table 5. HIV-gpt produced in COS cells by transfection with plasmids (plasmid derived) is compared with HIV-gpt produced by, rescue from H9/HIV-gpt cell line after infection with HIV-IIIB and cells infected with MLV-neo.
(§1) Table 6. Colony formation and persistent resistance after Hela-T4 cell infection with MLV-neo virus in the presence and absence of various antiviral agents.

[2] = tested on: recombinant HIV, recombinant MLV, or replication-competent HIV; assay type: cell-based; conditions: Hela-T4, MLV-neo; for No. of persistently resistant colonies: AZT 10 uM, DDI 50 uM, DDC 10 uM, D4T 50 uM, resistant/tested; for Frequency: frequency of persistently resistant colonies
Excerpt: The presence of a selectable marker gene in the recombinant HIV allowed the isolation of cells infected by the recombinant viruses in the presence of d4T. These cells were characterized by infection with both additional recombinant viruses and by replication-competent viruses.
as §1

HIV-gpt = HIV-gpt colony formation after infection of HeLa-T4 cells in the presence of antiretroviral agents; assay type: cell-based; conditions: HeLa-T4; plasmid derived HIV-gpt (COS cells); AZT 10 μM, DDI 50 μM, D4T 50 μM; no drug control 8800
[3] = S1 (sensitive) cell line, 3H-AZT for 4 hours, HPLC
[4] = R116 (“persistently resistant”) cell line, 3H-AZT for 4 hours, HPLC

SMILES	concentration in cells [1, 3] [pmoles/10^6 cells]	percentage of total radioactive species in that pool [1, 3] [%]	concentration in cells ([1]; human, 4 h) [pmoles/10^6 cells]	percentage of total radioactive species in that pool ([1]; human, 4 h) [%]	cross resistance of cell lines “persistently resistant” to AZT to other nucleoside analogs (HIV-LacZ)	No. of colonies (MLV-neo)	No. of persistently resistant colonies [2]	Frequency [2]	further results
Cc1cn([C@H]2C[C@H](N=[N+]=[N-])[C@@H](COP(=O)(O)OP(=O)(O)O)O2)c(=O)[nH]c1=O [AZTDP, 3′-azido-3′-deoxythymidine diphosphate]	0.0116	6.9	0.0193	9.6					
Cc1cn([C@H]2C[C@H](N=[N+]=[N-])[C@@H](COP(=O)(O)O)O2)c(=O)[nH]c1=O [AZTMP, 3′-azido-3′-deoxythymidine monophosphate]	0.1212	71.6							concentration in cells [1, 4]: 0.1575 pmoles/10^6 cells; percentage of total radioactive species in that pool [1, 4]: 78.6%
Cc1cn([C@H]2C[C@H](N=[N+]=[N-])[C@@H](CO[P@](=O)(O)O[P@](=O)(O)OP(=O)(O)O)O2)c(=O)[nH]c1=O [AZTTP, 3′-azido-3′-deoxythymidine triphosphate]	0.0158	9.3	0.0083	4.2					reduction in AZTTP in R116 cells compared to S1 cells ([1]; 3H-AZT incubation): ~2 fold
Nc1ccn([C@H]2CC[C@@H](CO)O2)c(=O)n1 [DDC]					None of the “persistently resistant” cell lines were cross “resistant”	17	2/17	2.2 × 10^−4	
O=c1[nH]cnc2c1ncn2[C@H]1CC[C@@H](CO)O1 [DDI]					None of the “persistently resistant” cell lines were cross “resistant”	19	4/19	4.4 × 10^−4	Number of “persistently resistance” colonies (HIV-LacZ; colonies from HIV-gpt infection of HeLa-T4 in presence of drug, resistant/tested): 2/16; Frequency (HIV-LacZ; frequency of persistently resistant colonies, HeLa-T4, plasmid derived HIV-gpt): 2.3 × 10^−4; Number of colonies (HIV-gpt): 16
